Data reported in patent publication US8906852B2 (MethylGene Inc., priority 2010, dated 2014).

These compounds were tested against T1, VEGFR/KDR (Homo sapiens, UniProt P35968) (assay: VEGFR/KDR kinase inhibition, DELFIA assay). Conditions: ATP 0.6 uM (2x Km), enzyme 5 nM.
T1 construct: made in house; host or cells: Sf9 cells (Spodoptera frugiperda), baculovirus
T1 sequence (P35968 806-1356): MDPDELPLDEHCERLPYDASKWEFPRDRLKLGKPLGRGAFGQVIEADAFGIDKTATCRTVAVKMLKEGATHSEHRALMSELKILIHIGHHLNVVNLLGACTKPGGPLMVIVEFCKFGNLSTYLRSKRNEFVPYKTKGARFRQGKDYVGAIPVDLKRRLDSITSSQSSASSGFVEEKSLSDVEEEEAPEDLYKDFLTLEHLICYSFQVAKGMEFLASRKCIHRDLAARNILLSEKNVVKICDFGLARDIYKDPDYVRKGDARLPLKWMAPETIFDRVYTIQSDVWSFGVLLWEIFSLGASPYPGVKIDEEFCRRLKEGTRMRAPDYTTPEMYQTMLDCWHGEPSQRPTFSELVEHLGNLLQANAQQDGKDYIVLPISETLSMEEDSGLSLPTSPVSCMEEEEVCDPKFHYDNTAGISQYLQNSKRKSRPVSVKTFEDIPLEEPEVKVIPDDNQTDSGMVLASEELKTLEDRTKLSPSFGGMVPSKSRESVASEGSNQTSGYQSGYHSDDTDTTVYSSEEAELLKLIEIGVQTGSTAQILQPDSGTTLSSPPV
Assay type: biochemical
Method in brief: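 Enzyme (5 nM) pre-incubated 4 min on ice with inhibitor and Mg-ATP (0.6 uM, 2× Km), then reacted 10-30 min at 30° C on immobilized poly(Glu4,Tyr). EDTA-quenched phosphotyrosine detected with Europium-labeled antibody by time-resolved fluorescence; IC50 from concentration series.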
In the case of `NCC(=O)N1CCN(Cc2ccc(-c3cc4nccc(Oc5ccc(NC(=O)NC6CC6)cc5F)c4s3)nc2)CC1` [Compound 77, 1-(4-(2-(5-((4-(2-aminoacetyl)piperazin-1-yl)methyl)pyridin-2-yl)thieno[3,2-b]-pyridin-7-yloxy)-3-fluorophenyl)-3-cyclopropylurea], the IC50 is reported as under 50 nM.
In the case of `CC(C)(C)C(=O)O[C@@H]1CCN(C(=O)c2cc3nccc(Oc4ccc(NC(=O)NC5CC5)cc4F)c3s2)C1` [Compound 443], the IC50 is reported as at least 250 nM.
In the case of `CNC(=O)N(C)C1CCN(Cc2ccc(-c3cc4nccc(Oc5ccc(NC(=O)NC6CC6)cc5F)c4s3)nc2)CC1` [Compound 410], the IC50 is reported as under 50 nM.
For `COC(=O)CCN1CCN(C(=O)c2ccc(-c3cc4nccc(Oc5ccc(NC(=O)NC6CC6)cc5F)c4s3)nc2)CC1` [Compound 580], the IC50 was under 50 nM.
`CN(C)CCCc1ccc(NCc2ccc(-c3cc4nccc(Oc5ccc(NC(=O)NC6CC6)cc5F)c4s3)nc2)cc1` [Compound 339, 1-cyclopropyl-3-(4-(2-(5-((4-(3-(dimethylamino)propyl)phenylamino)methyl)pyridin-2-yl)thieno[3,2-b]pyridin-7-yloxy)-3-fluorophenyl)urea] gave an IC50 of under 50 nM.
`CCNC(=O)N1CCN(C(=O)c2ccc(-c3cc4nccc(Oc5ccc(NC(=O)NC6CC6)cc5F)c4s3)nc2)CC1` [Compound 557] was tested, and the IC50 was under 50 nM.
`CCOC(=O)C1CCCN(C(=O)c2ccc(-c3cc4nccc(Oc5ccc(NC(=O)NC6CC6)cc5F)c4s3)nc2)C1` (stereo not shown) [Compound 237, ethyl 1-(6-(7-(4-(3-cyclopropylureido)-2-fluorophenoxy)thieno-[3,2-b]pyridin-2-yl)nicotinoyl)piperidine-3-carboxylate] gave an IC50 of under 50 nM.
With `O=C(O)CCN1CCN(Cc2ccc(-c3cc4nccc(Oc5ccc(NC(=O)NC6CC6)cc5F)c4s3)nc2)CC1` [Compound 70, 3-(4-((6-(7-(4-(3-cyclopropylureido)-2-fluorophenoxy)thieno[3,2-b]pyridin-2-yl)pyridin-3-yl)methyl)piperazin-1-yl)propanoic acid] the IC50 was under 50 nM.
Compound `O=C(Nc1ccc(Oc2ccnc3cc(-c4ccc(CN5CC[C@H](O)C5=O)cn4)sc23)c(F)c1)NC1CC1` [Compound 110, (S)-1-cyclopropyl-3-(3-fluoro-4-(2-(5-((3-hydroxy-2-oxopyrrolidin-1-yl)methyl)pyridin-2-yl)thieno[3,2-b]pyridin-7-yloxy)phenyl)urea] has an IC50 of under 50 nM.
`COC(=O)COC1CCN(Cc2ccc(-c3cc4nccc(Oc5ccc(NC(=O)NC6CC6)cc5F)c4s3)nc2)CC1` [Compound 328, methyl 2-(1-((6-(7-(4-(3-cyclopropylureido)-2-fluorophenoxy)thieno [3,2-b]pyridin-2-yl)pyridin-3-yl)methyl)piperidin-4-yloxy)acetate] showed an IC50 of under 50 nM.
Compound `CN1CCN(CCn2cnc(-c3cc4nccc(Oc5ccc(NC(=O)NC6CC6)cc5F)c4s3)c2)CC1` [Compound 266, 1-Cyclopropyl-3-(3-fluoro-4-(2-(1-(2-(4-methylpiperazin-1-yl)ethyl)-1H-imidazol-4-yl)thieno[3,2-b]pyridin-7-yloxy)phenyl)urea] has an IC50 of under 50 nM.
`COCCNCc1ccc(-c2cc3nccc(Oc4ccc(NC(=O)CC5CC5)cc4F)c3s2)nc1` [Compound 13, 2-cyclopropyl-N-(3-fluoro-4-(2-(5-((2-methoxyethylamino)methyl)pyridin-2-yl)-thieno[3,2-b]pyridin-7-yloxy)phenyl)acetamide] gave an IC50 of 50 to 100 nM.
`CN1CCN(C(=O)C2CN(Cc3ccc(-c4cc5nccc(Oc6ccc(NC(=O)NC7CC7)cc6F)c5s4)nc3)C2)CC1` [Compound 489, 1-cyclopropyl-3-(3-fluoro-4-(2-(5-((3-(4-methylpiperazine-1-carbonyl)azetidin-1-yl)methyl)pyridin-2-yl)thieno[3,2-b]pyridin-7-yloxy)phenyl)urea] was tested, and the IC50 was under 50 nM.
`NC(=O)CCN1CCN(Cc2ccc(-c3cc4nccc(Oc5ccc(NC(=O)NC6CC6)cc5F)c4s3)nc2)CC1` [Compound 82, 3-(4-((6-(7-(4-(3-cyclopropylureido)-2-fIuorophenoxy)-thieno[3,2-b]pyridin-2-yl)pyridin-3-yl)methyl)piperazin-l-yl)propanamide] showed an IC50 of under 50 nM.
Compound `CCOC(Nc1ccc(Oc2ccnc3cc(-c4ccc(CNCCOC)cn4)sc23)c(F)c1)C(F)(F)F` (stereo not shown) [Compound 14, N-(1-ethoxy-2,2,2-trifluoroethyl)-3-fluoro-4-(2-(5-((2-methoxyethylamino)-methyl)pyridin-2-yl)thieno[3,2-b]pyridin-7-yloxy)aniline] has an IC50 of at least 250 nM.
`CN(C)[C@H]1CCN(Cc2ccc(-c3cc4nccc(Oc5ccc(NC(=O)NC6CC6)cc5F)c4s3)nc2)C1` [Compound 54, (S)-1-cyclopropyl-3-(4-(2-(5-((3-(dimethylamino)pyrrolidin-1-yl)methyl)pyridin-2-yl)thieno[3,2-b]pyridin-7-yloxy)-3-fluorophenyl)urea] was tested, and the IC50 was under 50 nM.
`CC(C)NC(=O)Nc1ccc(Oc2ccnc3cc(-c4ccc(C(=O)N5CCCC5)cc4)sc23)c(F)c1` [Compound 128, 1-(3-fluoro-4-(2-(4-(pyrrolidine-1-carbonyl)phenyl)thieno[3,2-b]pyridin-7-yloxy)phenyl)-3-isopropylurea] showed an IC50 of under 50 nM.
For `O=C(Nc1ccc(Oc2ccnc3cc(-c4ccc(CN5CCN(C(=O)CCO)CC5)cn4)sc23)c(F)c1)NC1CC1` [Compound 545], the IC50 was under 50 nM.
`CN(C)CCNC(=O)C1CN(Cc2ccc(-c3cc4nccc(Oc5ccc(NC(=O)NC6CC6)cc5F)c4s3)nc2)C1` [Compound 490, 1-((6-(7-(4-(3-cyclopropylureido)-2-fluorophenoxy)thieno[3,2-b]pyridin-2-yl)pyridin-3-yl)methyl)-N-(2-(dimethylamino)ethyl)azetidine-3-carboxamide] was tested, and the IC50 was under 50 nM.
In the case of `O=C(O)CCC(=O)N1CC=C(c2cc3nccc(Oc4ccc(NC(=O)NC5CC5)cc4F)c3s2)CC1` [Compound 273, 4-(4-(7-(4-(3-cyclopropylureido)-2-fluorophenoxy)thieno[3,2-b]pyridin-2-yl)-5,6-dihydropyridin-1(2H)-yl)-4-oxobutanoic acid], the IC50 is reported as at least 250 nM.
Compound `COCCOCCOCCOCCN(C)C1CCN(Cc2ccc(-c3cc4nccc(Oc5ccc(NC(=O)NC6CC6)cc5F)c4s3)nc2)CC1` [Compound 418] has an IC50 of under 50 nM.
In the case of `C[C@H]1CN(Cc2ccc(-c3cc4nccc(Oc5ccc(NC(=O)NC6CC6)cc5F)c4s3)nc2)CCN1` [Compound 527], the IC50 is reported as under 50 nM.
`O=C(Nc1ccc(Oc2ccnc3cc(C(=O)N4CCC[C@@H](O)C4)sc23)c(F)c1)NC1CC1` [Compound 463, (R)-1-cyclopropyl-3-(3-fluoro-4-(2-(3-hydroxypiperidine-1-carbonyl)thieno-[3,2-b]pyridine-7-yloxy)phenyl)urea] showed an IC50 of 100 to 250 nM.
Compound `O=C(Nc1ccc(Oc2ccnc3cc(-c4ccc(CN5CCN(CCc6nnn[nH]6)CC5)cn4)sc23)c(F)c1)NC1CC1` [Compound 512, 1-(4-(2-(5-((4-(2-(1H-tetrazol-5-yl)ethyl)piperazin-1-yl)methyl)pyridin-2-yl)thieno[3,2-b]pyridin-7-yloxy)-3-fluorophenyl)-3-cyclopropylurea] has an IC50 of under 50 nM.
`COC(=O)C1CCN(Cc2ccc(-c3cc4nccc(Oc5ccc(NC(=O)NC6CC6)cc5F)c4s3)nc2)C1` (stereo not shown) [Compound 478, methyl 1-((6-(7-(4-(3-cyclopropylureido)-2-fluorophenoxy)thieno[3,2-b]pyridin-2-yl)pyridin-3-yl)methyl)pyrrolidine-3-carboxylate] showed an IC50 of under 50 nM.
In the case of `CC(=O)N1CCN(Cc2ccc(-c3cc4nccc(Oc5ccc(NC(=O)NC6CC6)cc5F)c4s3)nc2)CC1` [Compound 66, 1-(4-(2-(5-((4-acetylpiperazin-1-yl)methyl)pyridin-2-yl)thieno[3,2-b]pyridin-7-yloxy)-3-fluorophenyl)-3-cyclopropylurea], the IC50 is reported as under 50 nM.
Compound `O=C(Nc1ccc(Oc2ccnc3cc(-c4ccc(CN5CCN(C(=O)[C@@H](O)CO)CC5)cn4)sc23)c(F)c1)NC1CC1` [Compound 536] has an IC50 of under 50 nM.
Work on `CC(C)NC(=O)Nc1ccc(Oc2ccnc3cc(-c4ccc(CN5CCCOC5=O)cn4)sc23)c(F)c1` [Compound 201, 1-(3-fluoro-4-(2-(5-((2-oxo-1,3-oxazinan-3-yl)methyl)pyridin-2-yl)thieno[3,2-b]pyridin-7-yloxy)phenyl)-3-isopropylurea] yielded an IC50 of under 50 nM.
With `CC(C)(C)OC(=O)N[C@H]1CCN(Cc2ccc(-c3cc4nccc(Oc5ccc(NC(=O)NC6CC6)cc5F)c4s3)nc2)C1` [Compound 480, (S)-tert-butyl 1-((6-(7-(4-(3-cyclopropylureido)-2-fluorophenoxy)thieno[3,2-b]pyridin-2-yl)pyridin-3-yl)methyl)pyrrolidin-3-ylcarbamate] the IC50 was under 50 nM.
Compound `CN(C)CCn1cc(-c2cc3nccc(Oc4ccc(NC(=O)NC5CC5)cc4F)c3s2)nn1` [Compound 367] has an IC50 of 50 to 100 nM.
`COCCN(Cc1ccc(-c2cc3nccc(Oc4ccc(NC(=O)NC5CC5)cc4F)c3s2)nc1)C(=O)[C@@H](NC(=O)CN)C(C)C` [Compound 93, (S)-2-(2-aminoacetamido)-N-((6-(7-(4-(3-cyclopropylureido)-2-fluorophenoxy)-thieno[3,2-b]pyridin-2-yl)pyridin-3-yl)methyl)-N-(2-methoxyethyl)-3-methylbutanamide] showed an IC50 of under 50 nM.
For `O=C(O)CC[C@@H](O)C(=O)N1CCN(Cc2ccc(-c3cc4nccc(Oc5ccc(NC(=O)NC6CC6)cc5F)c4s3)nc2)CC1` [Compound 546], the IC50 was under 50 nM.
`COCCN(CCn1cnc(-c2cc3nccc(Oc4ccc(NC(=O)NC5CC5)cc4F)c3s2)c1)C(=O)CO` [Compound 258, N-(2-(4-(7-(4-(3-cyclopropylureido)-2-fluorophenoxy)thieno[3,2-b]-pyridin-2-yl)-1H-imidazol-1-yl)ethyl)-2-hydroxy-N-(2-methoxyethyl)acetamide] showed an IC50 of under 50 nM.
`CN1CCN(C(=O)c2ccc(-c3cc4nccc(Oc5ccc(NC(=O)NC6CC6)cc5F)c4s3)nc2)CC1` [Compound 228, 1-cyclopropyl-3-(3-fluoro-4-(2-(5-(4-methylpiperazine-1-carbonyl)pyridin-2-yl)thieno[3,2-b]pyridin-7-yloxy)phenyl)urea] gave an IC50 of under 50 nM.
